According to article PMC8075810 (Cell Chemical Biology, 2021):

Columns and labels:
[1] = target: T1, SCoV2 PLpro (Severe acute respiratory syndrome coronavirus 2, UniProt P0DTD1); format: cell-based, SARS-CoV-2; conditions: 10 μM, western blot
[2] = target: T1, SCoV2 PLpro; assay: biochemical; format: biochemical, SARS-CoV-2

C[C@H](c1cccc2ccccc12)N1CCC(C(=O)NCc2cc(F)cc(NC(=O)N3CCN(C)CC3)c2)CC1 [Inhibitor 19, (R)-N-(3-fluoro-5-((1-(1-(naphthalen-1-yl)ethyl)piperidine-4-carboxamido)methyl)phenyl)-4-methylpiperazine-1-carboxamide]
inhibition of SCoV2 PLpro (nsp1-nsp2 cleavage) in 293T cells [1]: significantly inhibited

CC(C)c1cc(C(C)C)c(CC(=O)NS(=O)(=O)Oc2c(C(C)C)cccc2C(C)C)c(C(C)C)c1 [avasimibe]
inhibition at 10 µM ([2]; read-out: inhibition of SCoV2 PLpro): > 50%

O=C(O)C(=O)c1cn(Cc2ccccc2)c2ccc(-c3ccc(OC(F)(F)F)cc3)cc12 [tiplaxtinin]
inhibition of SCoV2 PLpro ([2]; 10 μM compound, probe 7): over 50%

vitamin B12
inhibition of SCoV2 PLpro ([2]; 10 µM): over 50%
